Each structure is given as a SMILES string. Converted amounts (≈) assume the structure as drawn. Read-outs that look alike come from different tables or passages of the source.

The values below come from publication PMC12121777 (PLOS One, 2025).

Common to all, as to experiment: microbe, parasite or virus in culture
Holding throughout (type): cell-based

One assay has as its system Mtb 9449/2007. Particulars: Mycobacterium tuberculosis, read-out: MIC Mtb 9449/2007.
For another assay, the system named is Mtb 234/2005. As to conditions: Mycobacterium tuberculosis, read-out: MIC Mtb 234/2005.
In the next assay the test system is Mtb 7357/1998. Particulars: Mycobacterium tuberculosis, read-out: MIC Mtb 7357/1998.
The test system of another assay is Mtb Praha 4. Particulars: Mycobacterium tuberculosis, read-out: MIC Mtb Praha 4.
Another assay deals with Mtb Praha 131. As to conditions: Mycobacterium tuberculosis, read-out: MIC Mtb Praha 131.
The test system of a further assay is Mtb 8666/2010. Particulars: Mycobacterium tuberculosis, read-out: MIC Mtb 8666/2010.
The next assay has as its system Mtb Praha 1. As to conditions: Mycobacterium tuberculosis, read-out: MIC Mtb Praha 1.

As to `CCCCCCCCNc1nnc(-c2cc([N+](=O)[O-])cc([N+](=O)[O-])c2)o1` [Compound 5h, 5-(3,5-Dinitrophenyl)-N-octyl-1,3,4-oxadiazol-2-amine], the MIC with Mtb 9449/2007 (9449/2007, 336 h) worked out at 0.06 µM (≈ 0.0218 µg/mL); with Mtb 9449/2007 (9449/2007, 504 h), 0.125 µM (≈ 0.0454 µg/mL); in the assay on Mtb 234/2005 (234/2005, 336 h), 0.125 µM (≈ 0.0454 µg/mL); in the assay on Mtb 234/2005 (234/2005, 504 h), 0.125 µM (≈ 0.0454 µg/mL); in the assay with Mtb 7357/1998 (7357/1998, 336 h), 0.125 µM (≈ 0.0454 µg/mL); in the assay on Mtb 7357/1998 (7357/1998, 504 h), 0.125 µM (≈ 0.0454 µg/mL). In addition, the MIC came out at 0.125 µM (≈ 0.0454 µg/mL) with Mtb Praha 4 (PRAHA4, 336 h); 0.125 µM (≈ 0.0454 µg/mL) with Mtb Praha 4 (PRAHA4, 504 h); 0.125 µM (≈ 0.0454 µg/mL) in the assay on Mtb Praha 131 (PRAHA131, 336 h); 0.125 µM (≈ 0.0454 µg/mL) in the assay with Mtb Praha 131 (PRAHA131, 504 h); 0.06 µM (≈ 0.0218 µg/mL) in the assay on Mtb 8666/2010 (8666/2010, 336 h); 0.125 µM (≈ 0.0454 µg/mL) with Mtb 8666/2010 (8666/2010, 504 h). For the same compound, the MIC with Mtb Praha 1 (PRAHA1, 336 h) was determined as 0.125 µM (≈ 0.0454 µg/mL); with Mtb Praha 1 (PRAHA1, 504 h), 0.125 µM (≈ 0.0454 µg/mL).
In the case of `CCCCCCCCCCCCNc1nnc(-c2cc([N+](=O)[O-])cc([N+](=O)[O-])c2)o1` [Compound 5l, 5-(3,5-Dinitrophenyl)-N-dodecyl-1,3,4-oxadiazol-2-amine], the MIC stood at 0.25 µM (≈ 0.105 µg/mL) in the assay on Mtb 9449/2007 (9449/2007, 336 h); 0.5 µM (≈ 0.21 µg/mL) with Mtb 9449/2007 (9449/2007, 504 h); 0.25 µM (≈ 0.105 µg/mL) with Mtb 234/2005 (234/2005, 336 h); 0.5 µM (≈ 0.21 µg/mL) with Mtb 234/2005 (234/2005, 504 h); 0.5 µM (≈ 0.21 µg/mL) in the assay on Mtb 7357/1998 (7357/1998, 336 h); 0.5 µM (≈ 0.21 µg/mL) in the assay with Mtb 7357/1998 (7357/1998, 504 h). Further, the MIC in the assay on Mtb Praha 4 (PRAHA4, 336 h) amounted to 0.25 µM (≈ 0.105 µg/mL); with Mtb Praha 4 (PRAHA4, 504 h) it was 0.5 µM (≈ 0.21 µg/mL); in the assay on Mtb Praha 131 (PRAHA131, 336 h) it was 0.25 µM (≈ 0.105 µg/mL); in the assay with Mtb Praha 131 (PRAHA131, 504 h) it was 0.5 µM (≈ 0.21 µg/mL); with Mtb 8666/2010 (8666/2010, 336 h), 0.25 µM (≈ 0.105 µg/mL); in the assay on Mtb 8666/2010 (8666/2010, 504 h) it was 0.5 µM (≈ 0.21 µg/mL). Further, the MIC in the assay with Mtb Praha 1 (PRAHA1, 336 h) is 0.25 µM (≈ 0.105 µg/mL); in the assay with Mtb Praha 1 (PRAHA1, 504 h), 0.5 µM (≈ 0.21 µg/mL).
On to `CCCCCCCCCCCNc1nnc(-c2cc([N+](=O)[O-])cc([N+](=O)[O-])c2)o1` [Compound 5k, 5-(3,5-Dinitrophenyl)-N-undecyl-1,3,4-oxadiazol-2-amine], for which the MIC was 0.25 µM (≈ 0.101 µg/mL) in the assay on Mtb 9449/2007 (9449/2007, 336 h); 0.5 µM (≈ 0.203 µg/mL) in the assay with Mtb 9449/2007 (9449/2007, 504 h); 0.25 µM (≈ 0.101 µg/mL) in the assay on Mtb 234/2005 (234/2005, 336 h); 0.5 µM (≈ 0.203 µg/mL) in the assay with Mtb 234/2005 (234/2005, 504 h); 0.25 µM (≈ 0.101 µg/mL) with Mtb 7357/1998 (7357/1998, 336 h); 0.5 µM (≈ 0.203 µg/mL) in the assay on Mtb 7357/1998 (7357/1998, 504 h). Besides, the MIC was determined as 0.25 µM (≈ 0.101 µg/mL) in the assay with Mtb Praha 4 (PRAHA4, 336 h); 0.5 µM (≈ 0.203 µg/mL) in the assay with Mtb Praha 4 (PRAHA4, 504 h); 0.25 µM (≈ 0.101 µg/mL) with Mtb Praha 131 (PRAHA131, 336 h); 0.5 µM (≈ 0.203 µg/mL) in the assay with Mtb Praha 131 (PRAHA131, 504 h); 0.25 µM (≈ 0.101 µg/mL) in the assay with Mtb 8666/2010 (8666/2010, 336 h); 0.5 µM (≈ 0.203 µg/mL) in the assay on Mtb 8666/2010 (8666/2010, 504 h). In addition, the MIC turned out to be 0.25 µM (≈ 0.101 µg/mL) in the assay on Mtb Praha 1 (PRAHA1, 336 h) and 0.5 µM (≈ 0.203 µg/mL) in the assay with Mtb Praha 1 (PRAHA1, 504 h).
Take `CCCCCCCCCCCCNC(=S)NNC(=O)c1cc([N+](=O)[O-])cc([N+](=O)[O-])c1` [Compound 4s, 2-(3,5-Dinitrobenzoyl)-N-dodecylhydrazine-1-carbothioamide]: the MIC in the assay with Mtb 9449/2007 (9449/2007, 336 h) is 2 µM (≈ 0.907 µg/mL); in the assay on Mtb 9449/2007 (9449/2007, 504 h) it was 2 µM (≈ 0.907 µg/mL); in the assay with Mtb 234/2005 (234/2005, 336 h) it was 2 µM (≈ 0.907 µg/mL); in the assay with Mtb 234/2005 (234/2005, 504 h), 4 µM (≈ 1.81 µg/mL); in the assay on Mtb 7357/1998 (7357/1998, 336 h), 1 µM (≈ 0.454 µg/mL); with Mtb 7357/1998 (7357/1998, 504 h), 2 µM (≈ 0.907 µg/mL). The MIC with Mtb Praha 4 (PRAHA4, 336 h) was 2 µM (≈ 0.907 µg/mL); in the assay on Mtb Praha 4 (PRAHA4, 504 h) it was 2 µM (≈ 0.907 µg/mL); in the assay on Mtb Praha 131 (PRAHA131, 336 h) it was 2 µM (≈ 0.907 µg/mL); with Mtb Praha 131 (PRAHA131, 504 h) it was 4 µM (≈ 1.81 µg/mL); in the assay on Mtb 8666/2010 (8666/2010, 336 h), 1 µM (≈ 0.454 µg/mL); with Mtb 8666/2010 (8666/2010, 504 h), 2 µM (≈ 0.907 µg/mL). The MIC with Mtb Praha 1 (PRAHA1, 336 h) stood at 2 µM (≈ 0.907 µg/mL); in the assay on Mtb Praha 1 (PRAHA1, 504 h), 2 µM (≈ 0.907 µg/mL).
As to `COc1ccc(CNc2nnc(-c3cc([N+](=O)[O-])cc([N+](=O)[O-])c3)o2)cc1` [Compound 7b, 5-(3,5-Dinitrophenyl)-N-(4-methoxybenzyl)-1,3,4-oxadiazol-2-amine], the MIC with Mtb 9449/2007 (9449/2007, 336 h) was at most 0.03 µM; with Mtb 9449/2007 (9449/2007, 504 h), at most 0.03 µM; in the assay on Mtb 234/2005 (234/2005, 336 h), at most 0.03 µM; with Mtb 234/2005 (234/2005, 504 h) it was 0.06 µM (≈ 0.0223 µg/mL); in the assay on Mtb 7357/1998 (7357/1998, 336 h), at most 0.03 µM; with Mtb 7357/1998 (7357/1998, 504 h) it was at most 0.03 µM. The MIC in the assay on Mtb Praha 4 (PRAHA4, 336 h) is at most 0.03 µM; in the assay on Mtb Praha 4 (PRAHA4, 504 h), at most 0.03 µM; in the assay on Mtb Praha 131 (PRAHA131, 336 h) it was at most 0.03 µM; with Mtb Praha 131 (PRAHA131, 504 h), at most 0.03 µM; in the assay with Mtb 8666/2010 (8666/2010, 336 h) it was at most 0.03 µM; in the assay on Mtb 8666/2010 (8666/2010, 504 h), at most 0.03 µM. In addition, the MIC is at most 0.03 µM with Mtb Praha 1 (PRAHA1, 336 h) and at most 0.03 µM with Mtb Praha 1 (PRAHA1, 504 h).
For the compound `CCCCCCCCCNC(=O)NNC(=O)c1cc([N+](=O)[O-])cc([N+](=O)[O-])c1` [Compound 4i, 2-(3,5-Dinitrobenzoyl)-N-nonylhydrazine-1-carboxamide], the MIC in the assay on Mtb 9449/2007 (9449/2007, 336 h) came out at 1 µM (≈ 0.395 µg/mL); with Mtb 9449/2007 (9449/2007, 504 h), 1 µM (≈ 0.395 µg/mL); with Mtb 234/2005 (234/2005, 336 h) it was 1 µM (≈ 0.395 µg/mL); in the assay on Mtb 234/2005 (234/2005, 504 h), 2 µM (≈ 0.791 µg/mL); with Mtb 7357/1998 (7357/1998, 336 h), 1 µM (≈ 0.395 µg/mL); in the assay on Mtb 7357/1998 (7357/1998, 504 h), 1 µM (≈ 0.395 µg/mL). The MIC turned out to be 1 µM (≈ 0.395 µg/mL) in the assay with Mtb Praha 4 (PRAHA4, 336 h); 1 µM (≈ 0.395 µg/mL) in the assay on Mtb Praha 4 (PRAHA4, 504 h); 1 µM (≈ 0.395 µg/mL) in the assay on Mtb Praha 131 (PRAHA131, 336 h); 2 µM (≈ 0.791 µg/mL) in the assay on Mtb Praha 131 (PRAHA131, 504 h); 1 µM (≈ 0.395 µg/mL) with Mtb 8666/2010 (8666/2010, 336 h); 1 µM (≈ 0.395 µg/mL) in the assay with Mtb 8666/2010 (8666/2010, 504 h). In addition, the MIC in the assay with Mtb Praha 1 (PRAHA1, 336 h) stood at 1 µM (≈ 0.395 µg/mL); in the assay on Mtb Praha 1 (PRAHA1, 504 h), 2 µM (≈ 0.791 µg/mL).
